The source of these data is ChEMBL document CHEMBL5727311, “Heterobicyclic N-aminophenyl-amides as inhibitors of histone deacetylase” (2019).

The assay concerns the target Histone deacetylase 2 (Homo sapiens, UniProt Q92769). Briefly: Reporter Displacement Assay: HDAC2 containing a C-terminal HIS-Tag (Proteros) and fluorescently-labeled anti-HIS-antibody are diluted in one vial in assay buffer 50 mM Tris, pH 8.0, 1 mM DTT, 150 mM NaCl, and 0.01% Tween20. Components are pre-incubated for 30 min, then a small volume of reporter probe (Proteros) is added from a highly concentrated stock and incubation is continued for another 30 min. Final concentrations after adding the reporter probe amount to 20 nM HDAC2, 4 nM antibody, and 180 nM probe.

The term Kd denotes the concentration at which binding is half-saturated. Higher therefore signals lower affinity.

Sequence of Histone deacetylase 2 (Q92769 whole entry): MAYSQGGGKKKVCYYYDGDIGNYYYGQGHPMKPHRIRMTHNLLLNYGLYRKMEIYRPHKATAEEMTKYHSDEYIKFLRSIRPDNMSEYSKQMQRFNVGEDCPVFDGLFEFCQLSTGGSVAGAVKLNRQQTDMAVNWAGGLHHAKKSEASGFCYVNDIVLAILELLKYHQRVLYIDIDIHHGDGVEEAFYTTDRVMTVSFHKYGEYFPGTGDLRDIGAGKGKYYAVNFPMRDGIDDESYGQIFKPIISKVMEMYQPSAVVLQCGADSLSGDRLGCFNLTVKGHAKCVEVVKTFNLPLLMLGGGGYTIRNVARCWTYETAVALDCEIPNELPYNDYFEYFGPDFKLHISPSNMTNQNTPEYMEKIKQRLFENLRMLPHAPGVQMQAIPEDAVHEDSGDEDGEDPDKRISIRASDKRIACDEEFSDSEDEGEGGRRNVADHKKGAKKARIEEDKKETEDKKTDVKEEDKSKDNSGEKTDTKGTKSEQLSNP

As for `Nc1ccc(-c2ccncc2)cc1NC(=O)N1Cc2cncnc2C1`, the Kd is less than 100 nM.
